Assay results taken from patent US20170190671A1, “BIS(ARYL)CATECHOL DERIVATIVES AS HERBICIDES” (E I DU PONT DE NEMOURS AND COMPANY, priority 2014, published 2017).

Tests used:
Assay type in all cases: in vivo
[1] = system: waterhemp (common waterhemp, Amaranthus rudis); test: Test C postemergence; details: Amaranthus tuberculatus, post-emergence, Postemergence, scale 0 to 100, read-out: Plant response rating, Waterhemp
How it was run: (§1)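 Seeds sown in a loam soil and sand blend were treated preemergence; plants in peat-moss/vermiculite medium were sprayed at the 1- to 4-leaf stage (2-18 cm). Chemicals were in a non-phytotoxic surfactant-containing solvent. After 13 to 15 days in a greenhouse, injury was visually rated against controls on a 0-100 scale.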

[2] = system: blackgrass (Alopecurus myosuroides); test: Test C postemergence; details: Alopecurus myosuroides, post-emergence, 336 h, Postemergence, scale 0 to 100, read-out: Plant response rating, Blackgrass
How it was run: as §1

[3] = system: lambsquarters (Chenopodium album); test: Test C postemergence; details: Chenopodium album, post-emergence, 336 h, Postemergence, scale 0 to 100, read-out: Plant response rating, Lambsquarters
How it was run: as §1

[4] = system: morningglory (Ipomoea coccinea); test: Test C postemergence; details: Ipomoea, post-emergence, 336 h, Postemergence, scale 0 to 100, read-out: Plant response rating, Morningglory
How it was run: as §1

[5] = system: soybean (Glycine max); test: Test C postemergence; details: Glycine max, post-emergence, Postemergence, scale 0 to 100, read-out: Plant response rating, Soybean
How it was run: as §1

[6] = system: galium (catchweed bedstraw, Galium aparine); test: Test C postemergence; details: Galium, post-emergence, 336 h, Postemergence, scale 0 to 100, read-out: Plant response rating, Galium
How it was run: as §1

[7] = system: johnsongrass (Sorghum halepense); test: Test C postemergence; details: Sorghum halepense, post-emergence, 336 h, Postemergence, scale 0 to 100, read-out: Plant response rating, Johnsongrass
How it was run: as §1

[8] = system: ragweed (common ragweed, Ambrosia elatior); test: Test C postemergence; details: Ambrosia artemisiifolia, post-emergence, 336 h, Postemergence, scale 0 to 100, read-out: Plant response rating, Ragweed
How it was run: as §1

[9] = system: large (Lg) crabgrass (Digitaria sanguinalis); test: Test C postemergence; details: Digitaria sanguinalis, post-emergence, 336 h, Postemergence, scale 0 to 100, read-out: Plant response rating, Crabgrass, Large
How it was run: as §1

[10] = system: winter wheat (Triticum aestivum); test: Test C postemergence; details: Triticum aestivum, post-emergence, 336 h, Postemergence, scale 0 to 100, read-out: Plant response rating, Wheat
How it was run: as §1

[11] = system: wild oat (Avena fatua); test: Test C postemergence; details: Avena fatua, post-emergence, Postemergence, scale 0 to 100, read-out: Plant response rating, Oat, Wild
How it was run: as §1

[12] = system: barnyardgrass (Echinochloa crus-galli); test: Test C postemergence; details: Echinochloa crus-galli, post-emergence, Postemergence, scale 0 to 100, read-out: Plant response rating, Barnyardgrass
How it was run: as §1

[13] = system: yellow nutsedge (Cyperus esculentus); test: Test C postemergence; details: Cyperus, post-emergence, 336 h, Postemergence, scale 0 to 100, read-out: Plant response rating, Nutsedge, Yellow
How it was run: as §1

[14] = system: corn (Zea mays); test: Test C postemergence; details: Zea mays, post-emergence, 336 h, Postemergence, scale 0 to 100
How it was run: as §1

[15] = system: oilseed rape (Brassica napus); test: Test C postemergence; details: Brassica napus, post-emergence, Postemergence, scale 0 to 100, read-out: Plant response rating, Oilseed Rape
How it was run: as §1

[16] = system: Italian ryegrass (Lolium multiflorum); test: Test C postemergence; details: Lolium multiflorum, post-emergence, 336 h, Postemergence, scale 0 to 100, read-out: Plant response rating, Ryegrass, Italian
How it was run: as §1

[17] = system: giant foxtail (Setaria faberii); test: Test C postemergence; details: Setaria faberi, post-emergence, 336 h, Postemergence, scale 0 to 100, read-out: Plant response rating, Foxtail, Giant
How it was run: as §1

[18] = system: chickweed (common chickweed, Stellaria media); test: Test C postemergence; details: Stellaria media, post-emergence, Postemergence, scale 0 to 100, read-out: Plant response rating, Chickweed
How it was run: as §1

[19] = system: velvetleaf (Abutilon theophrasti); test: Test C postemergence; details: Abutilon theophrasti, post-emergence, Postemergence, scale 0 to 100, read-out: Plant response rating, Velvetleaf
How it was run: as §1

[20] = system: galium (catchweed bedstraw, Galium aparine); test: Test C preemergence; details: Galium, pre-emergence, 336 h, scale 0 to 100, read-out: Plant response rating, Galium
How it was run: as §1

[21] = system: johnsongrass (Sorghum halepense); test: Test C preemergence; details: Sorghum halepense, pre-emergence, 336 h, scale 0 to 100, read-out: Plant response rating, Johnsongrass
How it was run: as §1

[22] = system: barnyardgrass (Echinochloa crus-galli); test: Test C preemergence; details: Echinochloa crus-galli, pre-emergence, read-out: Plant response rating, Barnyardgrass
How it was run: as §1

SMILES: N#Cc1cccc(Oc2ncc(Cl)cn2)c1Oc1cnc(Cl)cn1 [Compound 32, 2-[(5-chloro-2-pyrazinyl)oxy]-3-[(5-chloro-2-pyrimidinyl)oxy]benzonitrile]
- pest or weed control at 31 g/ha ([1]; 31 g ai/ha): 85%
- pest or weed control at 62 g/ha ([1]; 62 g ai/ha): 85%
- pest or weed control at 125 g/ha ([1]; 125 g ai/ha): 95%
- pest or weed control at 16 g/ha ([2]; 16 g ai/ha): 5%
- pest or weed control at 31 g/ha ([2]; 31 g ai/ha): 5%
- pest or weed control at 62 g/ha ([2]; 62 g ai/ha): 5%
- pest or weed control at 125 g/ha ([2]; 125 g ai/ha): 10%
- pest or weed control at 16 g/ha ([3]; 16 g ai/ha): 80%
- pest or weed control at 31 g/ha ([3]; 31 g ai/ha): 90%
- pest or weed control at 62 g/ha ([3]; 62 g ai/ha): 85%
- pest or weed control at 125 g/ha ([3]; 125 g ai/ha): 90%
- pest or weed control at 31 g/ha ([4]; 31 g ai/ha): 90%
- pest or weed control at 62 g/ha ([4]; 62 g ai/ha): 95%
- pest or weed control at 125 g/ha ([4]; 125 g ai/ha): 95%
- plant injury at 31 g/ha ([5]; 31 g ai/ha): 65%
- plant injury at 62 g/ha ([5]; 62 g ai/ha): 85%
- plant injury at 125 g/ha ([5]; 125 g ai/ha): 85%
- pest or weed control at 16 g/ha ([6]; 16 g ai/ha): 80%
- pest or weed control at 31 g/ha ([6]; 31 g ai/ha): 80%
- pest or weed control at 62 g/ha ([6]; 62 g ai/ha): 95%
- pest or weed control at 125 g/ha ([6]; 125 g ai/ha): 95%
- pest or weed control at 16 g/ha ([7]; 16 g ai/ha): 10%
- pest or weed control at 31 g/ha ([7]; 31 g ai/ha): 10%
- pest or weed control at 62 g/ha ([7]; 62 g ai/ha): 10%
- pest or weed control at 125 g/ha ([7]; 125 g ai/ha): 40%
- pest or weed control at 31 g/ha ([8]; 31 g ai/ha): 55%
- pest or weed control at 62 g/ha ([8]; 62 g ai/ha): 80%
- pest or weed control at 125 g/ha ([8]; 125 g ai/ha): 80%
- pest or weed control at 16 g/ha ([9]; 16 g ai/ha): 5%
- pest or weed control at 31 g/ha ([9]; 31 g ai/ha): 10%
- pest or weed control at 62 g/ha ([9]; 62 g ai/ha): 20%
- pest or weed control at 125 g/ha ([9]; 125 g ai/ha): 30%
- plant injury at 31 g/ha ([10]; 31 g ai/ha): 0%
- plant injury at 62 g/ha ([10]; 62 g ai/ha): 0%
- plant injury at 125 g/ha ([10]; 125 g ai/ha): 0%
- pest or weed control at 31 g/ha ([11]; 31 g ai/ha): 30%
- pest or weed control at 62 g/ha ([11]; 62 g ai/ha): 30%
- pest or weed control at 125 g/ha ([11]; 125 g ai/ha): 30%
- pest or weed control at 16 g/ha ([12]; 16 g ai/ha): 10%
- pest or weed control at 31 g/ha ([12]; 31 g ai/ha): 20%
- pest or weed control at 62 g/ha ([12]; 62 g ai/ha): 20%
- pest or weed control at 125 g/ha ([12]; 125 g ai/ha): 30%
- pest or weed control at 31 g/ha ([13]; 31 g ai/ha): 20%
- pest or weed control at 62 g/ha ([13]; 62 g ai/ha): 20%
- pest or weed control at 125 g/ha ([13]; 125 g ai/ha): 20%
- Corn plant response rating (crop injury, 0 = no effect, 100 = complete kill) at 16 g/ha ([14]; 16 g ai/ha): 20%
- Corn plant response rating (crop injury, 0 = no effect, 100 = complete kill) at 31 g/ha ([14]; 31 g ai/ha): 20%
- Corn plant response rating (crop injury, 0 = no effect, 100 = complete kill) at 62 g/ha ([14]; 62 g ai/ha): 25%
- Corn plant response rating (crop injury, 0 = no effect, 100 = complete kill) at 125 g/ha ([14]; 125 g ai/ha): 25%
- plant injury at 31 g/ha ([15]; 31 g ai/ha): 80%
- plant injury at 62 g/ha ([15]; 62 g ai/ha): 85%
- plant injury at 125 g/ha ([15]; 125 g ai/ha): 85%
- pest or weed control at 31 g/ha ([16]; 31 g ai/ha): 5%
- pest or weed control at 62 g/ha ([16]; 62 g ai/ha): 10%
- pest or weed control at 125 g/ha ([16]; 125 g ai/ha): 30%
- pest or weed control at 16 g/ha ([17]; 16 g ai/ha): 20%
- pest or weed control at 31 g/ha ([17]; 31 g ai/ha): 20%
- pest or weed control at 62 g/ha ([17]; 62 g ai/ha): 15%
- pest or weed control at 125 g/ha ([17]; 125 g ai/ha): 20%
- pest or weed control at 16 g/ha ([18]; 16 g ai/ha): 70%
- pest or weed control at 31 g/ha ([18]; 31 g ai/ha): 80%
- pest or weed control at 62 g/ha ([18]; 62 g ai/ha): 80%
- pest or weed control at 125 g/ha ([18]; 125 g ai/ha): 85%
- pest or weed control at 31 g/ha ([19]; 31 g ai/ha): 55%
- pest or weed control at 62 g/ha ([19]; 62 g ai/ha): 60%
- pest or weed control at 125 g/ha ([19]; 125 g ai/ha): 75%
- pest or weed control at 31 g/ha ([20]; 31 g ai/ha, preemergence): 95%
- pest or weed control at 62 g/ha ([20]; 62 g ai/ha, preemergence): 95%
- pest or weed control at 125 g/ha ([20]; 125 g ai/ha, preemergence): 95%
- pest or weed control at 16 g/ha ([20]; Preemergence, 16 g ai/ha): 10%
- pest or weed control at 31 g/ha ([21]; 31 g ai/ha, preemergence): 85%
- pest or weed control at 62 g/ha ([21]; 62 g ai/ha, preemergence): 100%
- pest or weed control at 125 g/ha ([21]; 125 g ai/ha, preemergence): 100%
- pest or weed control at 16 g/ha ([21]; Preemergence, 16 g ai/ha): 40%
- pest or weed control at 31 g/ha ([22]; 31 g ai/ha, preemergence, scale 0 to 100): 85%
- pest or weed control at 62 g/ha ([22]; 62 g ai/ha, preemergence, scale 0 to 100): 98%
- pest or weed control at 125 g/ha ([22]; 125 g ai/ha, preemergence, scale 0 to 100): 100%
- pest or weed control at 16 g/ha ([22]; Preemergence, 16 g ai/ha, scale 0 to 100 (0 no effect, 100 complete control)): 50%
